Measured values: patent US20080318970A1, “Treatment of Infectious Diseases” (priority 2004, published 2008)

Experiments:
E. coli, LN 3164 = test: MIC susceptibility test, microdilution broth method (NCCLS), chemosensitising compound alone; format: cell-based; conditions: 37° C., 16 h
Description: Bacteria were sub-cultured on Mueller-Hinton agar plates and incubated over night at 37° C. Pre-warmed Mueller-Hinton broth was inoculated with colonies from the plate and incubated for approximately three hours to achieve a log phase culture. The log phase culture of bacteria was diluted with fresh pre-warmed medium and adjusted to a defined Optical Density (OD) at 600 nm in order to give a final assay concentration of 1×10^4 bacteria/ml medium.
Cell growth was tested using the MIC susceptibility tests by use of the microdilution broth method in accordance to the NCCLS Guidelines (NCCLS Guidelines, Methods for Dilution Antimicrobial Susceptibility Tests for Bacteria That Grow Aerobically; Approved Standard, Sixth Edition, Volume 23; Number 2). A 100% Mueller-Hinton broth and a bacterial concentration of 1×10^4/ml were used.
A log phase culture of bacteria was diluted with fresh pre-warmed medium and adjusted to a defined OD at 600 nm in order to give a final concentration of 1×10^4 bacteria/ml medium in each well. Each chemosensitising compound was added to the bacterial culture in the wells in two-fold dilutions in order to give final concentrations ranging from 8 to 500 μg/ml. Trays were incubated at 37° C. for 16 h. Minimal Inhibitory Concentration, (MIC) is defined as the lowest inhibitory concentration showing no visible growth according to the NCCLS Guidelines.

E. faecalis F84 = test: Checkerboard combination study (FIC index); format: cell-based, Enterococcus faecalis; conditions: MDR isolate
Description: Enterococcus faecalis, F84. A multidrug resistant clinical isolate.
(§1) The synergistic effect was studied by checkerboard combination studies exposing cells to 0-64 μg/ml anti-infective agent in the absence or presence of trans-flupenthixol, cis-flupenthixol or trans-clopenthixol. Each experiment was repeated in tripleduplicate. MIC values represent the mean values of two separate experiments,
A log phase culture of bacteria was diluted with fresh pre-warmed medium and adjusted to a defined OD at 600 nm in order to give a final concentration of 1×10^4 bacteria/ml medium in each well. […] Anti-infective agent was added to the bacterial culture in the wells in two-fold dilutions in order to give final concentrations ranging from 0 to 64 μg/ml Trays were incubated at 37° C. for 16 h. Wells were assessed visually for growth. The Fractional Inhibitory Concentration (FIC) was calculated for each anti-infective agent alone and in combination with trans-flupenthixol, cis-flupenthixol or trans-clopenthixol. The following formulae were used to calculate the FIC index:
(§2) FIC=FICchemosensitising compound+FICanti-infective agent
(§3) FICchemosensitising compound=(MICchemosensitising compound+anti-infective agent)/(MICchemosensitising compound)
(§4) FICanti-infective agent=(MICanti-infective agent+chemosensitising compound/(MICanti-Infective agent)
(§5) Synergy was defined as a FIC index of <0.5.

S. aureus O11 [1] = test: Checkerboard combination study (FIC index); format: cell-based, Staphylococcus aureus; conditions: anti-infective agent Dicloxacillin; isolate susceptible (S)
Description: Staphylococcus aureus O11. Clinical isolate resistant to penicillin. Susceptible to methicillin, tetracycline, beta-lactams, fluoroquinolones, chloramphenicol and aminoglycosides.
as §1
(§6) A log phase culture of bacteria was diluted with fresh pre-warmed medium and adjusted to a defined OD at 600 nm in order to give a final concentration of 1×10^4 bacteria/ml medium in each well. Each chemosensitising compound was added to the bacterial culture in the wells in two-fold dilutions in order to give final concentrations ranging from 0 to 8 μg/ml. Anti-infective agent was added to the bacterial culture in the wells in two-fold dilutions in order to give final concentrations ranging from 0 to 64 μg/ml Trays were incubated at 37° C. for 16 h. Wells were assessed visually for growth. The Fractional Inhibitory Concentration (FIC) was calculated for each anti-infective agent alone and in combination with trans-flupenthixol, cis-flupenthixol or trans-clopenthixol. The following formulae were used to calculate the FIC index:
as §2, §3, §4, §5

E. coli 331ME = test: Checkerboard combination study (FIC index); format: cell-based; conditions: MDR isolate
Description: E. coli 331 ME. In vivo-selected multidrug resistant clinical isolates of E. coli. Strains were isolated from a patient with severe cystitis/urosepsis. Resistant to tetracycline, beta-lactams, fluoroquinolones, chloramphenicol and aminoglycosides.
as §1, §6, §2, §3, §4, §5

S. aureus O11 [2] = format: cell-based
[3] = Pharmacokinetic studies of Trans-clopenthixol with mice, concentrations in sera; format: in vivo, NMRI mice; conditions: single dose of 0.3 mg per mouse, subcutaneous, 1-24 h (FIG. 4)
Description: Pharmacokinetic studies were done with NMRI mice. Concentrations in sera were determined after the administration of a single dose of 0.3 mg per mouse. The drug was administered by subcutaneous injection in the neck region in a volume of 0.2 ml per dose. At 1, 2, 4, 6, and 24 hours after the injection blood samples were obtained from the mice in groups of three. After collection, the blood was centrifuged and the serum was stored at −80° C. until it was analyzed by High Pressure Liquid Chromatography.

HIV-1 strain HTLV-IIIB = test: Inhibition of HIV-1 replication in MT4 cells (MTT assay); format: cell-based
Description: Each experiment was repeated in tripleduplicate. MIC values represent the mean values of two separate experiments.
The HIV-1 strain HTLV-IIIB were propagated in H9 cells at 37° C., 5% CO2 using RPMI 1640 with 10% heat-inactivated foetal calf serum (FCS) and antibiotics (growth medium). Culture supernatant was filtered ([…]), aliquotted, and stored at −80° C. until use. The HIV-1 strain was obtained from NIH AIDS Research and Reference Program.
(§7) Compounds were examined for possible antiviral activity against strain 111B of HIV-1 using MT4 cells as target cells. MT4 cells were incubated with virus (0.005 MOI) and growth medium containing the test dilutions of compound(s) for six days in parallel with virus-infected and uninfected control cultures without compound added. Expression of HIV in the cultures was indirectly quantified using the MTT assay as previously described. Compounds mediating less than 30% reduction of HIV expression were considered without biological activity. Compounds were tested in parallel for cytotoxic effect in uninfected MT4 cultures containing the test dilutions of compound as described above. Cultures for test of both antiviral activity and cytotoxic effect were set up in tripleduplicates, […] per culture in micro titre plates.
The 50% inhibitory concentration was determined by interpolation from the plots of percent inhibition versus concentration of compound.
EC50 is defined as the effective concentration that inhibits 50% of viral production, 50% of viral infectivity, or 50% of the virus-induced cytopathic effect.

uninfected MT4 cells = test: Cytotoxic effect in uninfected MT4 cultures; format: cell-based
Description: as §7
CC50 is defined as the inhibitory concentration that reduces cellular growth or viability of uninfected cells by 50%.

[4] = alone, at the concentrations used

OCCN1CCN(CC/C=C2\c3ccccc3Sc3ccc(Cl)cc32)CC1 [trans-clopenthixol]
MIC (E. coli, LN 3164): 16 µg/mL
FIC index (E. faecalis F84; anti-infective agent Dicloxacillin): 0.03
FIC index (E. faecalis F84; anti-infective agent Vanomycin): 0.06
FIC index (S. aureus O11 [1]): 0.25
FIC index (E. coli 331ME; anti-infective agent Ciprofloxacin): 0.003
FIC index (E. coli 331ME; anti-infective agent Gentamicin): 0.008
FIC index (E. coli 331ME; anti-infective agent Piperacillin): 0.063
Frequency on emergence of resistance (S. aureus O11 [2]; 1 μg of ciprofloxacin per ml (two times the MIC) in the presence of inhibitor (1 μg/ml)): <1 × 10^−10
decrease of the frequency of spontaneous emergence of ciprofloxacin resistance (S. aureus O11 [2]; inhibitor 1 μg/ml): ≥ 100 fold
toxic effect of the inhibitor on S. aureus plated in the absence of ciprofloxacin (in words) (S. aureus O11 [2]; inhibitor 1 μg/ml): affected neither the colony-forming ability nor the colony size
Serum values [3]: less than 300 ng/ml
antiviral effect (in words) (HIV-1 strain HTLV-IIIB; [4]): no antiviral or cytotoxic effect
EC50 (HIV-1 strain HTLV-IIIB; compound alone, MT4 cells, six days): > 3000 nM
cytotoxic effect (in words) (uninfected MT4 cells; [4]): no antiviral or cytotoxic effect
CC50 (uninfected MT4 cells; compound alone, uninfected MT4): > 3000 nM
